Each structure is given as a SMILES string.

The IC50 is the concentration needed to halve the response being measured.

The nature of the assay: Inhibition of human SRB1-mediated Hepatitis C virus genotype 2a entry into human 293T cells by immunoblotting.
In turn, `CC(C)OC(=O)c1ccc2c(c1)c1ccccc1n2CCCN1C[C@@H](C)N[C@@H](C)C1` showed a half-inhibitory concentration (IC50) of 630 nM.
Under `C[C@@H]1CN(CCCn2c3ccccc3c3ccccc32)C[C@H](C)N1` [9-(3-(3,5-dimethylpiperazin-1-yl)propyl)-9H-carbazole] stands 1200 nM.
`COC(=O)c1ccc2c(c1)c1ccccc1n2CCCN1C[C@@H](C)N[C@@H](C)C1` showed an IC50 of 230 nM.
Compound `CCOC(=O)c1ccc2c(c1)c1ccccc1n2CCCN1C[C@@H](C)N[C@@H](C)C1` gave an IC50 of 600 nM.
